What was measured:
Assay type in all cases: cell-based
STAT3 = test: Western blot, STAT3 protein level; details: 4 at 1 μM
Experimental: (§1) Cytosolic and nuclear extracts were prepared using a Nuclear/Cytosol Fractionation Kit (BioVision Research, USA). Cytosolic extracts (for NF-κBp65, NF-κBp50, COX-2, iNOS, STAT3, c-Myc, Bcl-xl, Nrf2, SOD, GSTP, EGFR, Akt, p-Akt, Keap1, IKKα/β and β-actin) or nuclear extracts (for NF-κBp65, NF-κBp50, STAT3, p-STAT3, Nrf2, p-Nrf2 and lamin) were separated on 7.5%, 10% or 12% SDS–PAGE slab gels. Then, the proteins were transferred to a nitrocellulose Immobilon-P membrane. After blocking for 2 h with 10% skimmed milk, proteins were incubated with primary antibodies against NF-κBp65, NF-κBp50, COX-2, iNOS, STAT3, p-STAT3, c-Myc, Bcl-xl, Nrf2, p-Nrf2, SOD, GSTP, EGFR, Akt, p-Akt, Keap1, IKKα/β, β-actin, and lamin. Alkaline phosphatase (AP)-labeled anti-rabbit IgG, anti-goat IgG, and anti-mouse IgG secondary antibodies (Bio-Rad Laboratories, USA), as well as horseradish peroxidase (HRP)-conjugated anti-mouse IgG (Boster Bio, USA) secondary antibodies were used in the staining reaction. Bands were visualized by the AP Conjugate Substrate Kit NBT/BCIP or the chemiluminescent HRP substrate of the Clarity ECL Kit (Bio–Rad Laboratories, USA). The amount of immunoreactive product in each lane was determined using a ChemiDoc Imaging System (Bio–Rad Laboratories, USA). Values were calculated as relative absorbance units (RQ) per mg of protein and expressed as a percentage of the control.

DLD-1 cells [1] = test: Wound healing assay (cell migration); details: 24 h, 4 at standard concentration (1 μM), BAY 11-7082 5 µM
Experimental: Cell migration was assessed by the wound healing assay. DLD-1 cells were seeded into 24-well plates (5 × 10^5 cells per well) and were grown overnight to reach confluency. A scratch was performed using a 10 μl tip, wells were rinsed twice with PBS buffer to remove detached cells, and fresh medium with reduced FBS concentration (0.5%) containing the tested compounds was added. Subsequently, representative microscopic photographs of scratch areas were taken by JuLI FL microscope (NanoEntek, South Korea) direct after the addition of compounds and after 24 h. Area covered by cells (%) was assessed using JuLI FL software and the difference in the coverage of the growth area by DLD-1 cells between 0 and 24 h time points was calculated for each well. The experiment was repeated three times. The relative effect of the tested compounds on cell migration was calculated by comparing the difference in cell coverage area between compound-treated cells and DMSO-vehicle control (tested compound [area 24 h − area 0 h] / DMSO-vehicle control [area 24 h − area 0 h]).

NF-κB p65 [2] = test: Transcription factor ELISA, NF-κB p65 binding to DNA; details: DLD-1 cells (context); 1, 4 at 1 μM; 2, 8 at 5 μM; vs control
Experimental: To estimate NF-ΚB (p50 and p65 subunits) STAT3 and Nrf2 activation, enzymatic immunoassays with the Transcription Factor ELISA Kit (TransAM™NF-κB, TransAM™STAT3/TransAM™Nrf2, Active Motif, Carlsbad CA, USA) were used following the manufacturer’s protocol. Briefly, proper consensus-site double-strand oligonucleotides (NF-κB—5′-GGGACTTTCC-3′; STAT3-5’—TTCCCGGAA-3’; Nrf2-5ʹ—[…]-3ʹ) were immobilized on an ELISA plate and incubated for one hour with the nuclear extracts. The activated subunits bound to DNA were recognized with a specific primary antibody and detected with an HRP-conjugated secondary antibody. The number of subunits was determined by spectrophotometry at λ = 450 nm. The number of p50, and p65 subunits, STAT3, as well as the amount of Nrf2 contained in the DNA-binding complex, corresponded to the activated NF-κB, STAT3, or Nrf2 transcription factors.

IKKα/β = test: Western blot, IKKα/β protein in cytosolic fraction; details: HCT116 cells; 4 at 1 μM
Experimental: as §1

COX-2 = COX-2 expression (qRT-PCR mRNA, Western blot protein); details: 4 at 1 μM
Experimental: as §1
(§2) Total RNA from cells was isolated with the GeneMatrix Universal DNA/RNA/Protein Purification Kit (EurX, Poland). For the qRT-PCR analyses, the Maxima SYBR Green I/ROX qPCR Master Mix (2×) (Thermo Fisher Scientific, USA) and the thermal cycler LightCycler (Roche, Germany) were used. The protocol started with 5 min of enzyme activation at 95 °C, followed by 40–50 cycles at 95 °C for 15 s, 56 °C for 20 s, 72 °C for 40 s, and final elongation at 72 °C for 5 min. Melting curve analysis was used for amplicon verification. The expression levels of TATA-box-binding protein (TBP) and porphobilinogen deaminase (PBGD) were used to normalize the data. The Pfaffl comparative method was used to calculate fold change. Primers were designed using Beacon Designer software (the sequences of primers used to analyze genes are listed in Table 2 of the supplementary materials).

NF-κB p65 [3] = test: Western blot, NF-κB p65 protein level; details: 4 at 1 μM, vs control
Experimental: as §1

Nrf2 = test: qRT-PCR, Nrf2 mRNA; details: 5 at 5 μM
Experimental: as §2

DLD-1 cells [4] = test: Cell cycle distribution, PI staining, flow cytometry, DLD-1; details: 48 h, BAY 11-7082 5 µM, 5 in higher (doubled) concentration
Experimental: The analysis of the cell cycle distribution was performed by propidium iodide (PI) staining. The addition of RNase A improved the specificity of PI binding to DNA. The Muse Cell Cycle Kit (Luminex, USA) and flow cytometric detection were performed with the Muse Cell Analyzer (Merck, Germany), according to the manufacturer’s protocol. Briefly, cells were seeded (2 × 10^5 cells per well) in 6-well plates and on the following day the analyzed compounds were added. Topotecan (Sigma-Aldrich, USA) was used as a positive control of cell cycle arrest. After 48 h cells were collected by trypsinization, fixed in cold 70% ethanol and stored at –20 °C. Then, fixed cells were collected and stained with PI, subjected to 30 min incubation at room temperature in the dark and analyzed by flow cytometry. Three independent experiments were performed. Data were analyzed by Muse 1.5 Analysis Software (Merck, Germany).

NF-κB p65 [5] = test: qRT-PCR, NF-κB p65 mRNA; details: DLD-1 cells; 5 μM
Experimental: as §2

p-Nrf2 = test: Western blot, p-Nrf2 protein in nuclear fraction; details: HCT116 line; 5 μM
Experimental: as §1

GSTP = GSTP expression (qRT-PCR mRNA, Western blot protein); details: DLD-1 cells; 5 at 5 μM
Experimental: as §1, with “control. […]” for “control.”

SMILES | decrease in the nuclear level of STAT3 protein (STAT3; DLD-1 cells, 2 at 5 μM) | decrease in the nuclear level of STAT3 protein (STAT3; HCT116 cells) | reduction of cell migration rate (wound healing) vs DMSO-treated cells (DLD-1 cells [1]) | reduction of the binding of the p65 subunit to DNA (NF-κB p65 [2]) | IKKα/β, cytosolic fraction (IKKα/β) | COX-2 protein level (COX-2; DLD-1 cells, cytosolic fraction) | COX-2 transcription (COX-2; DLD-1 cells, 3, 6 at 5 μM) | COX-2 expression, protein level (COX-2; HCT116 cells, 2 at 5 μM) | COX-2 expression, transcript level (COX-2; HCT116 cells, 2 at 5 μM) | decrease of p65 level in the nuclear fraction (NF-κB p65 [3]; DLD-1 cells) | decrease of p65 level in the nuclear fraction (NF-κB p65 [3]; HCT116 cells) | increase in Nrf2 transcription (Nrf2; DLD-1 line) | increase in Nrf2 transcription (Nrf2; HCT116 line) | cell cycle distribution (in words) (DLD-1 cells [4]) | inhibitory effect on p65 subunit transcription (NF-κB p65 [5]) | increase in the nuclear level of p-Nrf2 (p-Nrf2) | GSTP expression and protein levels (GSTP)
COc1cc(C(=O)/C=C/c2cccc(SC)c2)cc(Br)c1OC [chalcone 4] | 21% | 22% | approximately 15% | 21% | inactivation | reduced COX-2 protein levels | statistically significant reduction | reduction of COX-2 expression | reduction of COX-2 expression | 22% | 26% | – | – | – | – | – | –
COc1cc(/C=C/C(=O)c2cc(Br)c(SC)c(OC)c2)ccc1SC [chalcone 5] | – | – | – | – | – | – | – | – | – | – | – | 77% | 45% | slightly enriching S phase | most potent inhibitory effect | 85% | significantly increased GSTP expression and protein levels

From paper PMC9436958, “The synthesis of novel thioderivative chalcones and their influence on NF-κB, STAT3 and NRF2 signaling pathways in colorectal cancer cells” (Scientific Reports, 2022)
